The structures appear in SMILES notation.

Series [1] can be described thus: Stability test: content on storage and shelf life. Conditions: calculated with Arrehnius equation; component of prescription (b) of Example 2.
For series [2] the following is noted: low dose; cited from earlier work.

On to `CSCCC(N)C(=O)O` (racemic) [DL-Methionine], for which, in series [1], the “Shelf life (time that content maintains more than 90% of initial at 25° C.)” value is 35.64 months.
With `CC(=O)Nc1ccc(O)cc1` [Acetaminophen], in series [2], the “eliminated as unmetabolized form” value is given as “about 2%”. The “Shelf life (time that content maintains more than 90% of initial at 25° C.)” value in series [1] is listed as 35.94 months.
Regarding `Cn1c(=O)c2c(ncn2C)n(C)c1=O` [Caffeine anhydrous], the “Shelf life (time that content maintains more than 90% of initial at 25° C.)” value in series [1] is 89.84 months.
For `N[C@@H](CC(=O)[O-])C(=O)[O-].O.[Na+].[Na+]` [Sodium L-aspartate monohydrate], the “Shelf life (time that content maintains more than 90% of initial at 25° C.)” value in series [1] is on record as 33.86 months.

Source of the values: patent US6048540A, “Acetamenophen composition with reduced liver toxicity” (Chong Kun Dang Corp., priority 1997, dated 2000).
